Experimental findings from patent US7019034B2, “Compositions and methods for reducing serum glucose and triglyceride levels in diabetic mammals” (Allergan, Inc., priority 2003, dated 2006) are described below.

Structures are written as SMILES.

Test [1] addresses T1, RXRβ (UniProt P28704).
T1 sequence (P28704 1-520): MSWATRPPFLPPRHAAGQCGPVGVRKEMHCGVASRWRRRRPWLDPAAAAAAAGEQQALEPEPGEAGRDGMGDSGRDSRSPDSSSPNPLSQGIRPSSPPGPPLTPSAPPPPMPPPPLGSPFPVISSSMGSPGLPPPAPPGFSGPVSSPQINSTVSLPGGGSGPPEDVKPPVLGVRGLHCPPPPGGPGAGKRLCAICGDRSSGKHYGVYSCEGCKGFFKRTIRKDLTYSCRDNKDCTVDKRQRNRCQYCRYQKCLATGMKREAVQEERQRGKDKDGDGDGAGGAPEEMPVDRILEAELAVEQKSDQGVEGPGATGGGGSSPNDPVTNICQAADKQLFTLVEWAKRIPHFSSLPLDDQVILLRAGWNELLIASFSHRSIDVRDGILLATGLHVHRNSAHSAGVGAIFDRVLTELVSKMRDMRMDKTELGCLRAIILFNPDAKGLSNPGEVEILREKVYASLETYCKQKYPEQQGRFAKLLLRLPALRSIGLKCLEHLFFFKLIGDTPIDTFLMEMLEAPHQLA
Description: holoreceptor transactivation assay, RXRβ. The format is cell-based. Particulars: for RXR β efficacy in percentage as compared to the standard compound / EC50: holoreceptor assay; for RXR β efficacy in percentage as compared to the standard compound: number in brackets; for EC50: read-out: RXR Trans. EC50 β; for efficacy in activating RXRβ compared with RXRα and RXRγ subtypes (in words): transactivation, Table 1. An excerpt:
The results obtained in this assay are expressed in EC50 numbers, as they are also in the chimeric receptor transactivation assay. The results of the ligand binding assay are expressed in Ki numbers.
(§1) Particularly, the transactivation data pertaining to activation of the RAR receptors were obtained in the chimeric assay, and the transactivation data pertaining to the activation of RXR receptors were obtained in the holoreceptor assay.
(§2) In Table 1 NA stands for not active at all as an agonist. ND stands for not determined. The first row of numbers pertaining to each compound is the measured EC50 number. […] The third row of numbers pertaining to each compound is the binding Ki number.

The target in a further test is T2, RARγ (Homo sapiens, UniProt P13631).
T2 sequence (P13631 1-454): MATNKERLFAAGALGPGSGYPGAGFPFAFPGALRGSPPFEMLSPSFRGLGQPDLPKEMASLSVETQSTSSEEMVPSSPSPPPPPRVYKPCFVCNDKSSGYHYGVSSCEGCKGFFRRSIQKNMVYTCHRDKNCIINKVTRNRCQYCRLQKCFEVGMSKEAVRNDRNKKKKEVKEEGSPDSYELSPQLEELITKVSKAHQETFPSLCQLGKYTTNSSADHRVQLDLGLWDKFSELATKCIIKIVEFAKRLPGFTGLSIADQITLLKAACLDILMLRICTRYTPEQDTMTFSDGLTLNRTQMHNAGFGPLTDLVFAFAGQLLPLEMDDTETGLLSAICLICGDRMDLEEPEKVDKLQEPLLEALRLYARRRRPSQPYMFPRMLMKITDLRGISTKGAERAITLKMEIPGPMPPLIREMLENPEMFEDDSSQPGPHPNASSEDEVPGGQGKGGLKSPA
Nature of the test: ligand binding assay, RARγ. The conditions noted are these: read-out: RAR Bind. Ki γ.
From the text: (§3) A holoreceptor transactivation assay and a ligand binding assay which measure the antagonist/agonist like activity of the compounds of the invention, or their ability to bind to the several retinoid receptor subtypes, respectively, are described in published PCT Application No. WO WO93/11755 (particularly on pages 30–33 and 37–41) published on Jun. 24, 1993, the specification of which is also incorporated herein by reference. […] The results obtained in this assay are expressed in EC50 numbers, as they are also in the chimeric receptor transactivation assay. The results of the ligand binding assay are expressed in Ki numbers. (See Cheng et al. Biochemical Pharmacology Vol. 22 pp 3099–3108, expressly incorporated herein by reference.)
as §2

Test [2] addresses T1, RXRβ. Description: ligand binding assay, RXRβ. Particulars: read-out: RXR Bind Ki β.
From the text: as §3, §2

The next test deals with T3, RXRα (Homo sapiens, UniProt P19793).
T3 construct: expressed in transfected cells
T3 sequence (P19793 1-462): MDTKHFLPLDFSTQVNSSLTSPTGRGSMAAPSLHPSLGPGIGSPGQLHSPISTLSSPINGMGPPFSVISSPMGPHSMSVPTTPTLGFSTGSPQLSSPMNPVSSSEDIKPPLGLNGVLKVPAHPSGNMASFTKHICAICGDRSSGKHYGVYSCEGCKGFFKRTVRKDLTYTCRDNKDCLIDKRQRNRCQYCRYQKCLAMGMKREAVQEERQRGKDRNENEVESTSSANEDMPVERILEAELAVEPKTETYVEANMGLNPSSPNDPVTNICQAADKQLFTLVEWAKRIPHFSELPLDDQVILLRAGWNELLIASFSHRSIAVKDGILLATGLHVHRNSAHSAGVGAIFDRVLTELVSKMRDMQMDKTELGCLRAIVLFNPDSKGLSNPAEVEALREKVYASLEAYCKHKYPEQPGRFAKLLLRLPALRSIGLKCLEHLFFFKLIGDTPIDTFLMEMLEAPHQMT
Nature of the test: holoreceptor transactivation assay, RXRα. The format is cell-based.
From the text: as §3, §1, §2

A word on the EC50: it is the concentration that produces a half-maximal response. The term Ki denotes the equilibrium dissociation constant of an inhibitor or competing ligand from its target. `CCCOc1cc2c(cc1\C(C)=C(F)/C=C/C(C)=C/C(=O)O)C(C)(C)CCC2(C)C` [Compound 4]: on RXRβ [1], the “RXR β efficacy in percentage as compared to the standard compound” value worked out at 24%; the half-maximal effective concentration (EC50) was 0.062 µM; the “efficacy in activating RXRβ compared with RXRα and RXRγ subtypes (in words)” value is “significantly more effective in activating the RXRβ subtype”. Moreover, the Ki on RARγ came to 0.72 µM. The Ki at RXRβ [2] stood at 0.057 µM.
For `CCOc1cc2c(cc1\C(CC)=C(F)/C=C/C(C)=C/C(=O)O)C(C)(C)CCC2(C)C` [Compound 2, (2E,4E,6E)-7-(3-Ethoxy-5,5,8,8-tetramethyl-5,6,7,8-tetrahydronaphthalen-2-yl)-6-fluoro-3-methylnona-2,4,6-trienoic acid], the EC50 stood at 0.0008 µM on RXRα (NA = not active at all as an agonist, read-out: RXR Trans. EC50 α) and 0.036 µM at RXRβ [1]. The “RXR α efficacy in percentage as compared to the standard compound” value at RXRα (number in brackets) was 17%. Further, the “RXR β efficacy in percentage as compared to the standard compound” value at RXRβ [1] is on record as 46%. Further, the “efficacy in activating RXRβ compared with RXRα and RXRγ subtypes (in words)” value on RXRβ [1] was “significantly more effective in activating the RXRβ subtype”. The figures for the inhibitory constant (Ki) at RARγ and on RXRβ [2] were 1.51 µM and 0.023 µM, respectively.
